Measured values as given in patent US10683297B2 (Sunshine Lake Pharma Co., Ltd., priority 2017, dated 2020).

Tests used:
[1] = Compound stability in rat liver microsomes; format: in vitro ADME; conditions: for CLint scaled at 5 μM: liver microsomes, pH 7.4, in vivo CLint extrapolated from rat liver microsome incubation; for half-life at 5 μM: read-out: Rat T1/2
Outline: (§1)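 Compounds (5 μM) incubated at 37 °C with human or rat liver microsomes (0.5 mg protein/mL) and 1.0 mM NADPH in 100 mM phosphate buffer pH 7.4, 0.05% DMSO, in duplicate. Sampled 0–60 min, quantified by LC/MS/MS as % of time zero; CLint extrapolated.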

[2] = Compound stability in human liver microsomes; format: in vitro ADME; conditions: for half-life at 5 μM: human liver microsomes 0.5 mg protein/mL, compound 5 μM, NADPH 1.0 mM, pH 7.4, 37° C., read-out: Human T1/2; for CLint scaled at 5 μM: liver microsomes, pH 7.4, in vivo CLint extrapolated from human liver microsome incubation
Outline: as §1

JAK2 (h) = molecular target: T1, JAK2 (h) (Homo sapiens, UniProt O60674); assay: JAK2 (h) kinase assay; format: biochemical; conditions: [γ-33P-ATP] 10 μM or KM values; 40 minutes at room temperature
T1 construct: purchased Millipore UK Ltd (assays performed there as a service)
T1 sequence (O60674 whole entry): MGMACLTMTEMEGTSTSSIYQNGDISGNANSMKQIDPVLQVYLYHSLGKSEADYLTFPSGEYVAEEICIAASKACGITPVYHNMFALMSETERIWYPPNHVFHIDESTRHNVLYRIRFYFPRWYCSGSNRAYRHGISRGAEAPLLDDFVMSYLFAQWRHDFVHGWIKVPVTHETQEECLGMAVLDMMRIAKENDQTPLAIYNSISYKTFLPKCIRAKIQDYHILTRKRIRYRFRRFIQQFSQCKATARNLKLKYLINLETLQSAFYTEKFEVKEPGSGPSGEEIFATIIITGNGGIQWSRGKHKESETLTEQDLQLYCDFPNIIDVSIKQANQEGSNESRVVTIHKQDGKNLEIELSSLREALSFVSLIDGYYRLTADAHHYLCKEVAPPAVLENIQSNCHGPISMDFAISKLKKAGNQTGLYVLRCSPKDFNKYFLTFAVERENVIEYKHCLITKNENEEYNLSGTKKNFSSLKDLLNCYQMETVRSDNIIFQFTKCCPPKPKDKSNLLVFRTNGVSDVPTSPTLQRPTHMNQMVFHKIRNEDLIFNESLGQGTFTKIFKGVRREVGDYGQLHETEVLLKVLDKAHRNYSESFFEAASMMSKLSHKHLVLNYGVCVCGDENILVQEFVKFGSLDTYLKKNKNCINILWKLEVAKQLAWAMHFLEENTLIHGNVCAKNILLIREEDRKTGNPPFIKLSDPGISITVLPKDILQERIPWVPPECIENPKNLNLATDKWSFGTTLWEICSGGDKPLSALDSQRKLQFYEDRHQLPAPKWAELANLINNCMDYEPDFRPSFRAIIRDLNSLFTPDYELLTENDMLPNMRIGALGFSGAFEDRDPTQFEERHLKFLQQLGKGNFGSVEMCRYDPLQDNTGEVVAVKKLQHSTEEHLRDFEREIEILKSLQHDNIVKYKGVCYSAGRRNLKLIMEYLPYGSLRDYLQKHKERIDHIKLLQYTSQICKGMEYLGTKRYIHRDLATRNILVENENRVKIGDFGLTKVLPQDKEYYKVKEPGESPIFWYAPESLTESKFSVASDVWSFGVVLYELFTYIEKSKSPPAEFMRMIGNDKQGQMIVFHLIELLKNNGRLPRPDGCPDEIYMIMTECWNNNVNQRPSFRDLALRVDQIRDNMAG
Outline: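 Radiometric filter-binding assay run at Millipore: human JAK2 with 100 μM peptide substrate in 8 mM MOPS pH 7.0, 0.2 mM EDTA, 10 mM MgAcetate, [γ-^33P]ATP at 10 μM or KM, 40 min at room temperature. Acid-stopped, spotted on P30 filtermat, scintillation counted; IC50 from 10-point ½-log curve.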

[3] = rat liver microsomes 0.5 mg protein/mL, compound 5 μM, NADPH 1.0 mM, pH 7.4, 37° C.

CC(C)(O)Cc1nc2cc(Nc3ncc(Cl)c(NC4CCN(c5ccc(C#N)cn5)CC4)n3)ccn2n1 [Example 78, 6-(4-((5-chloro-2-((2-(2-hydroxy-2-methylpropyl)-[1,2,4]triazolo[1,5-a]pyridin-7-yl)amino)pyrimidin-4-yl)amino)piperidin-1-yl)nicotinonitrile] gave a CLint scaled at 5 μM [1] of 157 mL/min/kg, a half-life at 5 μM [1, 3] of 0.264 h and a half-life at 5 μM [2] of 0.588 h. For the same molecule, the CLint scaled at 5 μM [2] was 49.3 mL/min/kg and the IC50 (JAK2 (h)) was 10 nM.
In the case of CCC1CN(c2ccc(C#N)nn2)CCC1Nc1nc(Nc2ccn3c(C)cnc3c2)ncc1Cl (stereo not shown) [Example 3, 6-(4-((5-chloro-2-((3-methylimidazo[1,2-a]pyridin-7-yl)amino)pyrimidin-4-yl)amino)-3-ethylpiperidin-1-yl)pyridazine-3-carbonitrile], the “Rat T1/2” value [1, 3] is reported as “∞”, the half-life at 5 μM [2] is reported as 0.938 h and the CLint scaled at 5 μM [2] is reported as 30.9 mL/min/kg. The IC50 (JAK2 (h)) was 2 nM.
Molecule CC(C)(O)Cc1cn2cc(Nc3ncc(Cl)c(NC4CCN(c5ccc(C#N)cn5)CC4)n3)ccc2n1 [Example 73, 6-(4-((5-chloro-2-((2-(2-hydroxy-2-methylpropyl)imidazo[1,2-a]pyridin-6-yl)amino)pyrimidin-4-yl)amino)piperidin-1-yl)nicotinonitrile] has a CLint scaled at 5 μM [1] of 214 mL/min/kg, a half-life at 5 μM [1, 3] of 0.193 h and a half-life at 5 μM [2] of 0.7 h. The CLint scaled at 5 μM [2] was 41.3 mL/min/kg and the IC50 (JAK2 (h)) was 5 nM.
In the case of CC(C)(O)Cc1nc2ccc(Nc3ncc(Cl)c(NC4CCN(c5ccc(C#N)cn5)CC4)n3)cn2n1 [Example 67, 6-(4-((5-chloro-2-((2-(2-hydroxy-2-methylpropyl)-[1,2,4]triazolo[1,5-a]pyridin-6-yl)amino)pyrimidin-4-yl)amino)piperidin-1-yl)nicotinonitrile], the CLint scaled at 5 μM [1] is reported as 80.6 mL/min/kg, the half-life at 5 μM [1, 3] is reported as 0.514 h and the half-life at 5 μM [2] is reported as 2.12 h. It also gave a CLint scaled at 5 μM [2] of 13.7 mL/min/kg and an IC50 (JAK2 (h)) of 39 nM.
Work on CC(C)(O)Cn1nnc2cc(Nc3ncc(Cl)c(NC4CCN(c5ccc(C#N)cn5)CC4)n3)ccc21 [Example 69, 6-(4-((5-chloro-2-((1-(2-hydroxy-2-methylpropyl)-1H-benzo[d][1,2,3]triazol-5-yl)amino)pyrimidin-4-yl)amino)piperidin-1-yl)nicotinonitrile] yielded a CLint scaled at 5 μM [1] of 14.6 mL/min/kg, a half-life at 5 μM [1, 3] of 2.84 h and a half-life at 5 μM [2] of 8.27 h. For the same molecule, the CLint scaled at 5 μM [2] was 3.5 mL/min/kg and the IC50 (JAK2 (h)) was 2 nM.
Molecule CC(C)(O)c1nc2cc(Nc3ncc(Cl)c(NC4CCN(c5ccc(C#N)cn5)CC4)n3)ccn2n1 [Example 39, 6-(4-((5-chloro-2-((2-(2-hydroxypropan-2-yl)-[1,2,4]triazolo[1,5-a]pyridin-7-yl)amino)pyrimidin-4-yl)amino)piperidin-1-yl)nicotinonitrile] has a CLint scaled at 5 μM [1] of 10.1 mL/min/kg, a half-life at 5 μM [1, 3] of 4.1 h and a half-life at 5 μM [2] of 2.01 h. It also gave a CLint scaled at 5 μM [2] of 14.4 mL/min/kg and an IC50 (JAK2 (h)) of 5 nM.
For CC(C)(O)Cc1nc2ccc(Nc3ncc(Cl)c(NC4CCN(c5ccc(C#N)nn5)CC4)n3)cn2n1 [Example 79, 6-(4-((5-chloro-2-((2-(2-hydroxy-2-methylpropyl)-[1,2,4]triazolo[1,5-a]pyridin-6-yl)amino)pyrimidin-4-yl)amino)piperidin-1-yl)pyridazine-3-carbonitrile], the CLint scaled at 5 μM [1] was 5.1 mL/min/kg, the half-life at 5 μM [1, 3] was 8.09 h and the half-life at 5 μM [2] was 3.27 h. The CLint scaled at 5 μM [2] was 8.9 mL/min/kg and the IC50 (JAK2 (h)) was 102 nM.
